Reference: patent publication US20230173090A1, “COMPOSITIONS AND METHODS FOR MODULATING DOPAMINE RECEPTOR ACTIVITY” (The Regents of the University of California, priority 2020, published 2023)

Legend:
[1] = target: T1, D1R (Homo sapiens, UniProt P21728); assay: D1R-mediated GIRK channel activation assay in HEK293T cells (whole-cell electrophysiology); format: cell-based
T1 construct: expressed in transfected cells; host or cells: HEK293T (A1, A2); HEK293 (A26)
Description: All constructs were cloned into mammalian expression vectors. For the receptor mediated-GIRK activation assay, HEK293T cells were seeded onto 18 mm coverslips and transiently transfected overnight with Lipofectamine 2000 and the following constructs: a receptor, a variant of the membrane-anchor (M; 0.7 µg), GIRK1(F137S) (0.7 µg), and tdTomato (0.2 µg). […] D1R, D5R, or opto-D1R were cotransfected with Gαis13 (0.35 µg), D3R with GαoA (0.7 µg), and M1R or mGluR1 with Gαiq5. Transfected cells were used for electrophysiology, imaging, or flow cytometry experiments.
HEK293T cells were sparsely seeded and maintained in DMEM (Invitrogen) with 10% fetal bovine serum on poly-L-lysine-coated coverslips at 37° C. and 5% CO2. HEK293T cells were voltage clamped in whole-cell configuration 16-48 hours after transfection. […] GluK2 electrophysiology was performed in the presence of 0.3 mg/mL concanavalin A to prevent desensitization. […] Cells were voltage clamped to -60 or -80 mV using an Axopatch 200A (Molecular Devices) amplifier.
For all experiments, compounds were applied using a gravity-driven perfusion system and illumination was applied to the entire field of view using a Polychrome V monochromator (TILL Photonics) through a 20x objective (maximum 0.05 mW/mm^2 at 370 nm and 0.5 mW/mm^2 at 460 nm or 473 nm) or a DG4 (Sutter) through a 20x objective (maximum 0.06 mW/mm^2 at 370 nm and 0.6 mW/mm^2 at 445 nm). pClamp software was used for both data acquisition and control of illumination.
The selection criteria for electrophysiological experiments are that a cell (i) expresses the fluorescent protein transfection marker, and (ii) responds to agonist, indicating the presence of either receptor and GIRK or an LGIC. Cells were not excluded unless the recording was of poor quality (e.g., unstable baseline).
Data were analyzed using GraphPad Prism (GraphPad), Clampfit (Axon instruments), Origin (OriginLab), MATLAB, or ImageJ software. For dose-response curves, data were normalized to vehicle (0%) and DA (100%) and nonlinear regression analysis was performed using the sigmoidal dose-response function in GraphPad Prism. Statistical analyses were performed using GraphPad Prism. All values reported are mean ± S.E.M.
FIGS. 9A-9H. Functional properties of untethered P-D1ago. (A) Schematic representation of a D1R-mediated G protein-coupled inwardly rectifying potassium (GIRK) channel assay in HEK293T cells. Agonist-induced receptor activation results in the recruitment of a heterotrimeric G protein containing the chimeric Gα subunit (Gαis) followed by the release of Gβγ, which activates GIRK channels and enhances inward-current. […] (E) Schematic representation of a highly sensitive D1R-mediated cAMP accumulation assay in HEK293T cells. Agonist-induced D1R activation results in Gs/olfrecruitment followed by the binding of its Gα subunit to adenylate cyclase (AC), which enhances the conversion of ATP to cAMP. cAMP binds the bioluminescence resonance energy transfer 1 (BRET′)-based cAMP sensor CAMYEL^87, resulting in a conformational change in its Epac domain that increases the distance and decreases BRET^1 between the donor Renilla luciferase (Rluc) and the acceptor YFP. […] Optimization and characterization of the D1R MP

[2] = tested on: membrane-anchor (M) (SNAP-tag); assay: Labeling of the membrane-anchor (M) at the cell surface: block of BG-Alexa647 binding, imaging and flow cytometry; format: cell-based; conditions: 1 µM for 1 hour, then 1.5 µM BG-Alexa647 for 30 minutes
Description: Untransfected or membrane-anchor (M) expressing HEK293T cells were labeled with 1.5 µM BG-TMR or BG-Alexa647 (NEB) for 20-30 minutes in the dark at 37° C. and 5% CO2 in a standard extracellular solution. Cells were then (i) mounted on an upright, scanning confocal microscope (Zeiss LSM 780) and imaged with a 20x objective or (ii) washed in DPBS and measured by flow cytometry (BD LSR II).
FIGS. 8A-8D. Photophysical properties of P-D1ago. (A) Absorbance spectra of P-D1ago under blue light (460 nm; blue) and UV light (370 nm; grey). (B) P-D1ago repeatedly switches from its trans to cis isomer with UV light and back to trans with blue light. […] Cells were incubated for 1 hour with vehicle (left upper panels), 1 µM surface block (left middle panels), or 1 µM P-D1ago (left lower panels), and were then labeled for 30 minutes with 1.5 µM BG-Alexa647. Cytosolic tdTomato was used as a transfection marker, grey bar = […]. A summary of labeling according to flow cytometry is shown on the right. unpaired two-sided t-test, p = 0.60. n = 3-6 replicates per condition. (D) M labeling as a function of the concentration of P-D1ago. The M was incubated for 1 hour with increasing concentrations of P-D1ago, and then labeled for 30 minutes with 1.5 µM BG-Alexa647. Labeling was measured by flow cytometry. […] Labeling was measured by flow cytometry. n = 3-4 replicates per condition. […]

[3] = target: T2, intracellular SNAP-tag (Homo sapiens, UniProt P16455, A127T/A154D/C150Q/C62A/E30R/G131K/G132T/G153L/K125A/K32I/L33F/M134L/N157G/Q115S/Q116H/R128A/R135S/S151G/S152D/S159E); assay: Block of BG-TMRstar binding to intracellular SNAP-tag expressed in the cytosol; format: cell-based; conditions: 1 µM for 1 hour, then 1.5 µM BG-TMRstar for 20 minutes
T2 construct: expressed in transfected cells
T2 sequence (P16455 1-182 E30R/K32I/L33F/C62A/Q115S/Q116H/K125A/A127T/R128A/G131K/G132T/M134L/R135S/C150Q/S151G/S152D/G153L/A154D/N157G/S159E limits assumed): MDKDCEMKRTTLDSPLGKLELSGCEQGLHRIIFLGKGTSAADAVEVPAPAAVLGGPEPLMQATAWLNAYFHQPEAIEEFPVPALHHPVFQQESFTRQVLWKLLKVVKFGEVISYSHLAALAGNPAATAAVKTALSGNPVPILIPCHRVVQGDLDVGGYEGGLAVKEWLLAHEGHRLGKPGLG

[4] = Photophysical properties (absorbance, photoswitching); format: physicochemical
Description: FIGS. 8A-8D. Photophysical properties of P-D1ago. (A) Absorbance spectra of P-D1ago under blue light (460 nm; blue) and UV light (370 nm; grey). (B) P-D1ago repeatedly switches from its trans to cis isomer with UV light and back to trans with blue light. […] Cells were incubated for 1 hour with vehicle (left upper panels), 1 µM surface block (left middle panels), or 1 µM P-D1ago (left lower panels), and were then labeled for 30 minutes with 1.5 µM BG-Alexa647. Cytosolic tdTomato was used as a transfection marker, grey bar = […]. A summary of labeling according to flow cytometry is shown on the right. unpaired two-sided t-test, p = 0.60. n = 3-6 replicates per condition. (D) M labeling as a function of the concentration of P-D1ago. The M was incubated for 1 hour with increasing concentrations of P-D1ago, and then labeled for 30 minutes with 1.5 µM BG-Alexa647. Labeling was measured by flow cytometry. (E) Time course of M labeling with P-D1ago. The M was incubated for different times with 1 µM P-D1ago, and then labeled for 30 minutes with 1.5 µM BG-Alexa647. Labeling was measured by flow cytometry. n = 3-4 replicates per condition. […] This contrasts with the commercially available permeant benzylguanine analog, cell block. […] Cytosolic mTurquoise was used as a transfection marker, grey bar = […]. A summary of labeling according to flow cytometry is shown on the right. unpaired two-sided t-test, ***p < 0.001. n = 3 replicates per condition.

T1 sequence (P21728 whole entry): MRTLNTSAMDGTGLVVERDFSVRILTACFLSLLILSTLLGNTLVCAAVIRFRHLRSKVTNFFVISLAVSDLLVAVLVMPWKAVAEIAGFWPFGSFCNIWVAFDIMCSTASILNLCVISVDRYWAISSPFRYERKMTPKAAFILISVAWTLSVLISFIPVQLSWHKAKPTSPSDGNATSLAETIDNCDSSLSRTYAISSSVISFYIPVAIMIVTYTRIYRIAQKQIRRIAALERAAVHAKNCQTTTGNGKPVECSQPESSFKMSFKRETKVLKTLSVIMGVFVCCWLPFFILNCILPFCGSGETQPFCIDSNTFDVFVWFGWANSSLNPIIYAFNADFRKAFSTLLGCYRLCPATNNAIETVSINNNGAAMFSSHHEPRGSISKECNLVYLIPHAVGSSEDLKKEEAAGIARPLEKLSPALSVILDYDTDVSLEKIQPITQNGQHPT

SMILES: CCCN(CCc1ccc(N=Nc2ccc(NC(=O)CNC(=O)CCOCCOCCOCCOCCOCCOCCOCCOCCOCCOCCOCCOCCn3cc(CCC(=O)NCc4ccc(COc5nc(N)nc6nc[nH]c56)cc4)nn3)cc2)cc1)C1CCc2c(O)cccc2C1 (centres unmarked) [P-D1ago, Benzylguanine-azobenzene-PPHT]
- effect of untethered P-D1ago on D1R in the GIRK assay ([1]; absence of the membrane-anchor (M), 1 µM or 10 µM, trans (blue light) or cis (UV light)): Neither 1 µM or 10 µM P-D1ago, concentrations that fully label the M (FIG. 8D), have any effect on the receptor
- D1R activation by P-D1ago tethered to MEAAAK ([1]; tethered to MEAAAK (SEQ ID NO:16), blue light): only partially activates D1R
- D1R activation in the presence of sub-saturating DA ([1]; tethered to MEAAAK, 100 nM and 1 µM DA): further activated D1R
- effect on the ability of DA to activate D1R ([1]; tethered to MEAAAK, saturating DA (10 µM)): did not diminish the ability of DA to fully activate D1R
- photoactivation of D1R by P-D1ago tethered to the M ([1]; tethered to the M, relative to a saturating concentration of DA): partially photoactivated with blue light (460 nm) and is deactivated with UV light (370 nm)
- binding to the M at the cell surface (block of BG-Alexa647 binding) [2]: almost completely
- binding to the M at the cell surface (block of BG-Alexa647 binding) ([2]; listed as P-Dlago): binds efficiently
- block of BG-TMRstar binding to intracellular SNAP-tag (membrane permeation) [3]: does not effectively prevent the binding
- wavelength switching trans-isomer to cis-isomer ([4]; UV light): 370 nm
- wavelength switching cis-isomer back to trans-isomer ([4]; blue light): 460 nm
- stability of the cis state ([4]; in the dark after illumination with UV light): stable in the cis state in the dark
